Reference: patent US9499492B2, “4-(ortho)-fluorophenyl-5-fluoropyrimidin-2-yl amines containing a sulfoximine group” (BAYER PHARMA AKTIENGESELLSCHAFT, priority 2012, dated 2016)
Read-outs that look alike come from different tables or passages of the source.

How the values were obtained:
[1] = target: CDK2/CycE (Homo sapiens (Human), UniProt P24941); assay: CDK2/CycE kinase assay (Method 2); format: biochemical; conditions: 10 μM ATP
From the text: 2. CDK2/CycE Kinase Assay:
CDK2/CycE-inhibitory activity of compounds of the present invention was quantified employing the CDK2/CycE TR-FRET assay as described in the following paragraphs:
Recombinant fusion proteins of GST and human CDK2 and of GST and human CycE, expressed in insect cells (Sf9) and purified by Glutathion-Sepharose affinity chromatography, were purchased from ProQinase GmbH (Freiburg, Germany). As substrate for the kinase reaction biotinylated peptide biotin-Ttds-[…] (C-terminus in amid form) was used which can be purchased e.g. form the company JERINI Peptide Technologies (Berlin, Germany).
(§1) For the assay 50 nl of a 100 fold concentrated solution of the test compound in DMSO was pipetted into a black low volume 384 well microtiter plate (Greiner Bio-One, Frickenhausen, Germany), 2 μl of a solution of CDK2/CycE in aqueous assay buffer [50 mM Tris/HCl pH 8.0, 10 mM MgCl2, 1.0 mM dithiothreitol, 0.1 mM sodium ortho-vanadate, 0.01% (v/v) Nonidet-P40 (Sigma)] were added and the mixture was incubated for 15 min at 22° C. to allow pre-binding of the test compounds to the enzyme before the start of the kinase reaction. […] The concentration of CDK2/CycE was adjusted depending of the activity of the enzyme lot and was chosen appropriate to have the assay in the linear range, typical concentrations were in the range of 130 ng/ml.
(§2) The resulting mixture was incubated 1 h at 22° C. to allow the formation of complex between the phosphorylated biotinylated peptide and the detection reagents. Subsequently the amount of phosphorylated substrate was evaluated by measurement of the resonance energy transfer from the Eu-chelate to the streptavidine-XL. Therefore, the fluorescence emissions at 620 nm and 665 nm after excitation at 350 nm was measured in a TR-FRET reader, e.g. a Rubystar (BMG Labtechnologies, Offenburg, Germany) or a Viewlux (Perkin-Elmer). The ratio of the emissions at 665 nm and at 622 nm was taken as the measure for the amount of phosphorylated substrate.

[2] = test system: HeLa, human cervical tumour cells; assay: Proliferation assay, HeLa (Method 3); format: cell-based; conditions: 4 days, crystal violet, read-out: Inhibition of HeLa cell proliferation IC50
Experimental: (§3) After 24 hours, the cells of one plate (zero-point plate) were stained with crystal violet (see below), while the medium of the other plates was replaced by fresh culture medium (200 μl), to which the test substances were added in various concentrations (0 μM, as well as in the range of 0.001-10 μM; the final concentration of the solvent dimethyl sulfoxide was 0.5%). The cells were incubated for 4 days in the presence of test substances. Cell proliferation was determined by staining the cells with crystal violet: the cells were fixed by adding 20 μl/measuring point of an 11% glutaric aldehyde solution for 15 minutes at room temperature. After three washing cycles of the fixed cells with water, the plates were dried at room temperature. The cells were stained by adding 100 μl/measuring point of a 0.1% crystal violet solution (pH 3.0). After three washing cycles of the stained cells with water, the plates were dried at room temperature. The dye was dissolved by adding 100 μl/measuring point of a 10% acetic acid solution. The extinction was determined by photometry at a wavelength of 595 nm. The change of cell number, in percent, was calculated by normalization of the measured values to the extinction values of the zero-point plate (=0%) and the extinction of the untreated (0 μm) cells (=100%).

[3] = test system: A2780, human ovarian carcinoma cells; assay: Proliferation assay, A2780 (Method 3); format: cell-based; conditions: A2780, 4 days, crystal violet, read-out: Inhibition of A2780 cell proliferation IC50
Experimental: as §3

[4] = In vitro metabolic stability in rat hepatocytes (Method 5); format: in vitro ADME, Han Wistar rat; conditions: 1 μM test compound
Experimental: 5. Investigation of In Vitro Metabolic Stability in Rat Hepatocytes
Hepatocytes from Han Wistar rats were isolated via a 2-step perfusion method. After perfusion, the liver was carefully removed from the rat: the liver capsule was opened and the hepatocytes were gently shaken out into a Petri dish with ice-cold Williams medium E (purchased from Sigma Aldrich Life Science, St Louis, Mo.). The resulting cell suspension was filtered through sterile gaze in 50 ml falcon tubes and centrifuged at 50×g for 3 min at room temperature. The cell pellet was resuspended in 30 ml WME and centrifuged through a Percoll® gradient for 2 times at 100×g. The hepatocytes were washed again with Williams' medium E (WMA) and resuspended in medium containing 5% Fetal calf serum (FCS, purchased from Invitrogen, Auckland, NZ). Cell viability was determined by trypan blue exclusion.
For the metabolic stability assay liver cells were distributed in WME containing 5% FCS to glass vials at a density of 1.0×10^6 vital cells/ml. The test compound was added to a final concentration of 1 μM. During incubation, the hepatocyte suspensions were continuously shaken and aliquots were taken at 2, 8, 16, 30, 45 and 90 min, to which equal volumes of cold acetonitrile were immediately added. Samples were frozen at −20° C. over night, after subsequently centrifuged for 15 minutes at 3000 rpm and the supernatant was analyzed with an Agilent 1200 HPLC-system with LCMS/MS detection.
The half-life of a test compound was determined from the concentration-time plot. From the half-life the intrinsic clearances were calculated. Together with the additional parameters liver blood flow, amount of liver cells in vivo and in vitro.

[5] = target: T1, CDK9/CycT1 (Homo sapiens (Human), UniProt P50750); assay: CDK9/CycT1 kinase assay (Method 1a); format: biochemical; conditions: for IC50: 10 μM ATP; for Selectivity CDK9/CDK2: derived from Methods 1a. and 2.
T1 sequence (P50750 whole entry): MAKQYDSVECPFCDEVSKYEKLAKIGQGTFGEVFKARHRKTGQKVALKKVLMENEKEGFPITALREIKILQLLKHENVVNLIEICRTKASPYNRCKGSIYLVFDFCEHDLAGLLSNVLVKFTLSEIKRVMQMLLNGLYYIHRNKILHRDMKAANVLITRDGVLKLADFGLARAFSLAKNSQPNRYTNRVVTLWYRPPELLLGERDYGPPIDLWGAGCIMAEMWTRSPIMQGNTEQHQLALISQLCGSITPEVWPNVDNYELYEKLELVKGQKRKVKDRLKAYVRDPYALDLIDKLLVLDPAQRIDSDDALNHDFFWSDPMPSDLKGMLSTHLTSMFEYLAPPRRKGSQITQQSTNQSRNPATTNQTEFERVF
T1 sequence (O60563 whole entry partner): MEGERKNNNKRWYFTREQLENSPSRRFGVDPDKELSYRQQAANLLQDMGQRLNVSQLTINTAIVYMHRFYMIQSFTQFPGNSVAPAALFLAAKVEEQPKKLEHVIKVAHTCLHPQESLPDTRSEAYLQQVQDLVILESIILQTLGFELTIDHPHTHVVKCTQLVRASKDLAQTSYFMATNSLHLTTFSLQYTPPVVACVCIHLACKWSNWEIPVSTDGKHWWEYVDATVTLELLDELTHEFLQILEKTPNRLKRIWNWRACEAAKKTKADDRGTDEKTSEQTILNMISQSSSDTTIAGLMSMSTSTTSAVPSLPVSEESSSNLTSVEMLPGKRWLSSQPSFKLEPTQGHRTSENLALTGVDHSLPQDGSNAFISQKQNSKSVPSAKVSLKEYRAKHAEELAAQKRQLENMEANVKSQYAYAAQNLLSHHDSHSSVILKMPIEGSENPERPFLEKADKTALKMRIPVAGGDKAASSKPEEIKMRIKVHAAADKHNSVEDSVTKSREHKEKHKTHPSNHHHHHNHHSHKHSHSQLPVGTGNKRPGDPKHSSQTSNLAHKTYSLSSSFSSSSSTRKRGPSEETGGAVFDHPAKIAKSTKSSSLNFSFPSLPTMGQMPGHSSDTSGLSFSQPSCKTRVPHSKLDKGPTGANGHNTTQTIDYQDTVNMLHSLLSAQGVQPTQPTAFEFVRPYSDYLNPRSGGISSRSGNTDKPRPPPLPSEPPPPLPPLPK
From the text: 1a. CDK9/CycT1 Kinase Assay:
CDK9/CycT1-inhibitory activity of compounds of the present invention was quantified employing the CDK9/CycT1 TR-FRET assay as described in the following paragraphs:
(§4) Recombinant full-length His-tagged human CDK9 and CycT1, expressed in insect cells and purified by Ni-NTA affinity chromatography, were purchased from Invitrogen (Cat. No PV4131). As substrate for the kinase reaction biotinylated peptide biotin-Ttds-[…] (C-terminus in amid form) was used which can be purchased e.g. form the company JERINI Peptide Technologies (Berlin, Germany).
as §1, with “CDK9/CycT1” for “CDK2/CycE”, “1 μg/ml.” for “130 ng/ml.”
as §2, with “HTRF” for “TR-FRET”

[6] = target: T1, CDK9/CycT1; assay: CDK9/CycT1 high ATP kinase assay (Method 1b); format: biochemical; conditions: 2 mM ATP
Experimental: 1b. CDK9/CycT1 High ATP Kinase Assay
CDK9/CycT1-inhibitory activity of compounds of the present invention at a high ATP concentration after preincubation of enzyme and test compounds was quantified employing the CDK9/CycT1 TR-FRET assay as described in the following paragraphs.
as §4, with “were purchase” for “were purchased”, “JERINI peptide technologies” for “JERINI Peptide Technologies”
as §1, with “CDK9/CycT1” for “CDK2/CycE”, “0.5 μg/ml.” for “130 ng/ml.”
as §2, with “HTRF” for “TR-FRET”

[7] = test system: MOLM-13 human acute myeloid leukemia cells; assay: Proliferation assay, MOLM-13 (Cell Titre-Glo, Method 3); format: cell-based; conditions: MOLM-13, 72-hour exposure, read-out: Inhibition of MOLM-13 cell proliferation IC50
Experimental: Non-adherent MOLM-13 human acute myeloid leukemia cells (DSMZ ACC 554) were seeded at a density of 5,000 cells/well in a 96-well multititer plate in 100 μL of growth medium supplemented 10% fetal calf serum. After 24 hours, cell viability of one plate (zero-point plate) was determined with the Cell Titre-Glo Luminescent Cell Viability Assay (Promega), while 50 μL of test compound containing medium was added to the wells of the other plates (final concentrations in the range of 0.001-10 μM and DMSO controls; the final concentration of the solvent dimethyl sulfoxide was 0.5%). Cell viability was assessed after 72-hour exposure with the Cell Titre-Glo Luminescent Cell Viability Assay (Promega).

| SMILES | IC50 [1] [nM] | IC50 ([2]; Homo sapiens, 96 h) [nM] | IC50 ([3]; Homo sapiens, A2780, 96 h) [nM] | maximal calculated oral bioavailability (Fmax) based on stability data in rat Hepatocytes [4] [%] | IC50 [5] [nM] | Selectivity CDK9/CDK2 [5] | IC50 [6] [nM] | IC50 [2] [nM] | IC50 [3] [nM] | IC50 ([7]; Homo sapiens, MOLM-13, 72 h) [nM] | IC50 [7] [nM] |
| --- | --- | --- | --- | --- | --- | --- | --- | --- | --- | --- | --- |
| CS(=O)(Cc1cc(Cl)cc(Nc2ncc(F)c(-c3ccc(F)cc3F)n2)c1)=NC#N (racemic) [Example 14, (rac)-[(3-Chloro-5-{[4-(2,4-difluorophenyl)-5-fluoropyrimidin-2-yl]amino}benzyl)(methyl)oxido-λ^6-sulfanylidene]cyanamide] | 530 | 1020 | 540 | 75 | – | – | – | – | – | – | – |
| CS(=O)(Cc1cc(Nc2ncc(F)c(-c3ccc(F)cc3F)n2)cc(C(F)(F)F)c1)=NC(N)=O (single isomer, unassigned) [Example 24, 1-{[3-{[4-(2,4-Difluorophenyl)-5-fluoropyrimidin-2-yl]amino}-5-(trifluoromethyl)benzyl](methyl)oxido-λ^6-sulfanylidene}urea] | 670 | – | – | 82 | 10 | 66 | 199 | 910 | 320 | – | – |
| CS(=O)(Cc1cc(Nc2ncc(F)c(-c3ccc(F)cc3F)n2)cc(S(F)(F)(F)(F)F)c1)=NC#N (single isomer, unassigned) [Example 29, {[3-{[4-(2,4-Difluorophenyl)-5-fluoropyrimidin-2-yl]amino}-5-(pentafluoro-λ^6-sulfanyl)benzyl](methyl)oxido-λ^6-sulfanylidene}cyanamide] | 940 | – | 96 | – | 5 | 198 | 8 | 178 | – | 92 | – |
| CS(=O)(Cc1cc(Nc2ncc(F)c(-c3ccc(F)cc3F)n2)cc(S(F)(F)(F)(F)F)c1)=NC#N (single isomer, unassigned) [Example 30, {[3-{[4-(2,4-Difluorophenyl)-5-fluoropyrimidin-2-yl]amino}-5-(pentafluoro-λ^6-sulfanyl)benzyl](methyl)oxido-λ^6-sulfanylidene}cyanamide] | 1500 | – | – | – | 4 | 360 | 9 | 359 | 167 | – | 141 |
| CS(=N)(=O)Cc1cc(Nc2ncc(F)c(-c3ccc(F)cc3F)n2)cc(S(F)(F)(F)(F)F)c1 (single isomer, unassigned) [Example 31, 4-(2,4-Difluorophenyl)-5-fluoro-N-{3-[(S-methylsulfonimidoyl)methyl]-5-(pentafluoro-λ^6-sulfanyl)phenyl}pyrimidin-2-amine] | 890 | 501 | 279 | – | 54 | 16 | 7 | – | – | 281 | – |
| CS(=N)(=O)Cc1cc(Br)cc(Nc2ncc(F)c(-c3ccc(F)cc3F)n2)c1 (single isomer, unassigned) [Example 42, N-{3-Bromo-5-[(S-methylsulfonimidoyl)methyl]phenyl}-4-(2,4-difluorophenyl)-5-fluoropyrimidin-2-amine] | 470 | 1060 | 1000 | – | 15 | 30 | 334 | – | – | 946 | – |
